Experimental data from patent US9663496B2, “AMPK-activating heterocyclic compounds and methods for using the same” (Rigel Pharmaceuticals, Inc., priority 2010, dated 2017).
pEC50: −log10 of the molar value.

Biological target: AMPK
Assay: AMPK activation, enzyme-linked immunosorbent assay
Type: biochemical
Settings: EC50 for AMPK activation, ELISA
Outline: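 Activator screen performed per well-known kit methods.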

Structure (SMILES) | pEC50
CS(=O)(=O)c1ccc(OC2CCN(C(=O)c3ccc(C(=O)NC4CCN(Cc5ccc(N6CCCC6)cc5)CC4)nc3)CC2)cc1 [Compound 208, 5-(4-(4-(methylsulfonyl)phenoxy)piperidine-1-carbonyl)-N-(1-(4-(pyrrolidin-1-yl)benzyl)piperidin-4-yl)picolinamide] | > 6.30
N#Cc1ccc(OC2CCN(C(=O)c3ccc(C(=O)N[C@H]4CC[C@@H](Oc5ccc(F)cc5)CC4)nc3)CC2)cc1 [Compound 303, 5-(4-(4-cyanophenoxy)piperidine-1-carbonyl)-N-((cis)-4-(4-fluorophenoxy)cyclohexyl)picolinamide] | > 6.30
N#Cc1ccc(CN2CCC(NC(=O)c3ccc(C(=O)N4CCC(Cc5ccc(F)cc5)CC4)cn3)CC2)cc1 [Compound 130, N-(1-(4-cyanobenzyl)piperidin-4-yl)-5-(4-(4-fluorobenzyl)piperidine-1-carbonyl)picolinamide] | > 6.30
N#Cc1ccc(CN2CCC(NC(=O)c3ccc(NC4CCN(c5ccccc5)CC4)cn3)CC2)cc1 [Compound 126, N-(1-(4-cyanobenzyl)piperidin-4-yl)-5-(1-phenylpiperidin-4-ylamino)picolinamide] | > 6.30
N#Cc1ccc(CN2CCC(NC(=O)c3ccc(C(=O)N4CCC(C(=O)c5ccc(Cl)cc5)CC4)cn3)CC2)cc1 [Compound 154, 5-(4-(4-chlorobenzoyl)piperidine-1-carbonyl)-N-(1-(4-cyanobenzyl)piperidin-4-yl)picolinamide] | > 6.30
N#Cc1ccc(CN2CCC(NC(=O)c3ccc(C(=O)N4CCN(c5ccc(C(=O)C(F)(F)F)cc5)CC4)cn3)CC2)cc1 [Compound 263, N-(1-(4-cyanobenzyl)piperidin-4-yl)-5-(4-(4-(2,2,2-trifluoroacetyl)phenyl)piperazine-1-carbonyl)picolinamide] | > 6.30
O=C(NC1CCN(Cc2cc(F)cc(F)c2)CC1)c1ccc(C(=O)N2CC[C@H](Oc3ccc(F)cc3)C2)cn1 [Compound 292, N-(1-(3,5-difluorobenzyl)piperidin-4-yl)-5-((S)-3-(4-fluorophenoxy)pyrrolidine-1-carbonyl)picolinamide] | > 6.30
N#Cc1ccc(CN2CCC(NC(=O)c3ccc(NC4CCN(c5ccc(Cl)cc5)CC4)cn3)CC2)cc1 [Compound 139, 5-(1-(4-chlorophenyl)piperidin-4-ylamino)-N-(1-(4-cyanobenzyl)piperidin-4-yl)picolinamide] | > 6.30
COc1ccc(Oc2ccc(NC(=O)c3ccc(C(=O)N4CCN(Cc5ccc(F)cc5)CC4)cn3)cc2)cc1 [Compound 54, 5-(4-(4-fluorobenzyl)piperazine-1-carbonyl)-N-(4-(4-methoxyphenoxy)phenyl)picolinamide] | > 6.30
N#Cc1ccc(OC2CCN(C(=O)c3ccc(C(=O)N[C@H]4CC[C@@H](Oc5ccc(C#N)cc5)CC4)cn3)CC2)cc1 [Compound 321, N-((cis)-4-(4-cyanophenoxy)cyclohexyl)-6-(4-(4-cyanophenoxy)piperidine-1-carbonyl)nicotinamide] | > 6.30
N#Cc1ccc(CN2CCC3(CCN(C(=O)c4ccc(C(=O)N5CCN(Cc6ccc(F)cc6)CC5)cn4)CC3)C2)cc1 [Compound 15, 4-((8-(5-(4-(4-fluorobenzyl)piperazine-1-carbonyl)picolinoyl)-2,8-diazaspiro[4.5]decan-2-yl)methyl)benzonitrile] | 5.30 to 6.00
COc1ccc(OC2CCN(C(=O)c3ccc(C(=O)NC4CCN(Cc5cc(F)cc(F)c5)CC4)nc3)CC2)cc1 [Compound 296, N-(1-(3,5-difluorobenzyl)piperidin-4-yl)-5-(4-(4-methoxyphenoxy)piperidine-1-carbonyl)picolinamide] | > 6.30
O=C(Nc1ccc(C(=O)N2CCN(Cc3ccc(F)cc3)CC2)cn1)c1ccc(Oc2ccc(F)cc2)nc1 [Compound 177, N-(5-(4-(4-fluorobenzyl)piperazine-1-carbonyl)pyridin-2-yl)-6-(4-fluorophenoxy) nicotinamide] | 5.30 to 6.00
CS(=O)(=O)c1ccc(OC2CCN(C(=O)c3ccc(C(=O)NC4CCN(Cc5cc(F)cc(F)c5)CC4)cn3)CC2)cc1 [Compound 236, N-(1-(3,5-difluorobenzyl)piperidin-4-yl)-6-(4-(4-(methylsulfonyl)phenoxy)piperidine-1-carbonyl)nicotinamide] | > 6.30
N#Cc1ccc(CN2CCC(NC(=O)c3ccc(C(=O)N4CCC(Oc5ccc(F)cc5F)CC4)cn3)CC2)cc1 [Compound 282, N-(1-(4-cyanobenzyl)piperidin-4-yl)-5-(4-(2,4-difluorophenoxy)piperidine-1-carbonyl)picolinamide] | > 6.30
CC(C)N1CCN(C(=O)c2ccc(C(=O)NC3CCN(Cc4ccc(C#N)cc4)CC3)nc2)CC1 [Compound 84, N-(1-(4-cyanobenzyl)piperidin-4-yl)-5-(4-isopropylpiperazine-1-carbonyl)picolinamide] | 5.30 to 6.00
CS(=O)(=O)c1ccc(OC2CCN(C(=O)c3ccc(C(=O)Nc4ccc(Oc5ccc(F)cc5)nc4)nc3)CC2)cc1 [Compound 231, N-(6-(4-fluorophenoxy)pyridin-3-yl)-5-(4-(4-(methylsulfonyl)phenoxy)piperidine-1-carbonyl)picolinamide] | > 6.30
COc1ccc(CN2CCC(NC(=O)c3ccc(C(=O)N4CCC(C(=O)c5ccc(S(C)(=O)=O)cc5)CC4)nc3)CC2)cc1 [Compound 223, N-(1-(4-methoxybenzyl)piperidin-4-yl)-6-(4-(4-(methylsulfonyl)benzoyl)piperidine-1-carbonyl)nicotinamide] | 5.30 to 6.00

Now from value to molecule:

pEC50 | Structure (SMILES)
5.30 to 6.00 | CC(=O)c1ccc(Oc2ccc(NC(=O)c3ccc(C(=O)N4CCN(c5ccc(S(C)(=O)=O)cc5)CC4)nc3)cn2)cc1 [Compound 487, N-(6-(4-acetylphenoxy)pyridin-3-yl)-6-(4-(4-(methylsulfonyl)phenyl)piperazine-1-carbonyl)nicotinamide]
> 6.30 | N#Cc1ccc(Oc2ccc(NC(=O)c3ccc(C(=O)N4CCC(C(=O)c5ccc(F)cc5F)CC4)nc3)nc2)cc1 [Compound 469, N-(5-(4-cyanophenoxy)pyridin-2-yl)-6-(4-(2,4-difluorobenzoyl)piperidine-1-carbonyl)nicotinamide]
> 6.30 | O=C(NC1CCN(Cc2ccc(F)cc2)CC1)c1ccc(C(=O)N2CCN(Cc3ccc(F)cc3)CC2)nc1 [Compound 328, 6-(4-(4-fluorobenzyl)piperazine-1-carbonyl)-N-(1-(4-fluorobenzyl)piperidin-4-yl)nicotinamide]
< 5.00 | N#Cc1ccc(OC2CCN(C(=O)c3ccc(C(=O)NC4CCNCC4)cn3)CC2)cc1 [Compound 335, 6-(4-(4-cyanophenoxy)piperidine-1-carbonyl)-N-(piperidin-4-yl)nicotinamide]
> 6.30 | N#Cc1ccc(CN2CCC(NC(=O)c3ccc(C(=O)N4CCC(C(=O)c5ccc(N6CCCC6)cc5)CC4)nc3)CC2)cc1F [Compound 447, N-(1-(4-cyano-3-fluorobenzyl)piperidin-4-yl)-6-(4-(4-(pyrrolidin-1-yl)benzoyl)piperidine-1-carbonyl)nicotinamide]
5.30 to 6.00 | O=C(Nc1ccc(Oc2ccc(F)cc2)nc1)c1ccc(C(=O)N2CCC(Oc3ccc(NS(=O)(=O)C4CC4)cc3)CC2)nc1 [Compound 449, 6-(4-(4-(cyclopropanesulfonamido)phenoxy)piperidine-1-carbonyl)-N-(6-(4-fluorophenoxy)pyridin-3-yl)nicotinamide]
5.30 to 6.00 | N#Cc1ccc(OC2CCN(C(=O)c3ccc(C(=O)NC4CCN(c5ccc(F)cc5)CC4)cn3)CC2)cc1 [Compound 422, 6-(4-(4-cyanophenoxy)piperidine-1-carbonyl)-N-(1-(4-fluorophenyl)piperidin-4-yl)nicotinamide]
6.00 to 6.30 | O=C(Nc1ccc(Oc2ccc(F)cc2)nc1)c1ccc(C(=O)N2CCC(C(=O)c3ccc(F)c(F)c3)CC2)cn1 [Compound 330, 5-(4-(3,4-difluorobenzoyl)piperidine-1-carbonyl)-N-(6-(4-fluorophenoxy)pyridin-3-yl)picolinamide]
> 6.30 | N#Cc1ccc(CN2CCC(NC(=O)c3ccc(C(=O)N4CCC(Oc5ccc(S(F)(F)(F)(F)F)cc5)CC4)cn3)CC2)cc1 [Compound 492, N-(1-(4-cyanobenzyl)piperidin-4-yl)-5-(4-(4-(pentafluorosulfanyl)phenoxy)piperidine-1-carbonyl)picolinamide]
> 6.30 | N#Cc1ccc(CN2CCC(NC(=O)c3ccc(C(=O)N4CCN(c5ccc(C(F)(F)F)cc5)CC4)cn3)CC2)cc1 [Compound 339, N-(1-(4-cyanobenzyl)piperidin-4-yl)-5-(4-(4-(trifluoromethyl)phenyl)piperazine-1-carbonyl)picolinamide]
> 6.30 | N#Cc1ccc(CN2CCC(NC(=O)c3ccc(C(=O)N4CCC(Oc5ccc(S(F)(F)(F)(F)F)cc5)CC4)nc3)CC2)cc1 [Compound 493, N-(1-(4-cyanobenzyl)piperidin-4-yl)-6-(4-(4-(pentafluorosulfanyl)phenoxy)piperidine-1-carbonyl)nicotinamide]
> 6.30 | CC(C)Oc1ccc(CN2CCC(NC(=O)c3ccc(C(=O)N4CCC(C(=O)c5ccc(N6CCCC6)cc5)CC4)nc3)CC2)cc1 [Compound 446, N-(1-(4-isopropoxybenzyl)piperidin-4-yl)-6-(4-(4-(pyrrolidin-1-yl)benzoyl)piperidine-1-carbonyl)nicotinamide]
> 6.30 | O=C(NC1CCN(Cc2ccc(OC(F)(F)F)cc2)CC1)c1ccc(C(=O)N2CCC(S(=O)(=O)c3ccc(F)cc3)CC2)nc1 [Compound 470, 6-(4-(4-fluorophenylsulfonyl)piperidine-1-carbonyl)-N-(1-(4-(trifluoromethoxy)benzyl)piperidin-4-yl)nicotinamide]
> 6.30 | O=C(NC1CCN(Cc2ccc(F)cc2)CC1)c1ccc(C(=O)N2CCC(C(=O)c3ccc(N4CCCC4)cc3)CC2)nc1 [Compound 381, N-(1-(4-fluorobenzyl)piperidin-4-yl)-6-(4-(4-(pyrrolidin-1-yl)benzoyl)piperidine-1-carbonyl)nicotinamide]
> 6.30 | N#Cc1ccc(Oc2ccc(NC(=O)c3ccc(C(=O)N4CCC(Oc5ccc(S(F)(F)(F)(F)F)cc5)CC4)nc3)cn2)cc1 [Compound 497, N-(6-(4-cyanophenoxy)pyridin-3-yl)-6-(4-(4-(pentafluorosulfanyl)phenoxy)piperidine-1-carbonyl)nicotinamide]
